Data on three compounds can be found in patent publication EP4702982A1, “VITALITY IMPROVING AGENT, COMPOSITION FOR IMPROVING VITALITY, AND FOOD COMPOSITION FOR IMPROVING VITALITY” (Med R&D Co. Ltd, priority 2023, dated 2024).

The subject of series [1] is FGF1 gene (fiblobrast growth factor 1). Kind of series: Quantitative real-time PCR of hair growth-related gene FGF1 in HFDPCs. The arrangement: key to FGF1: -: Expression was suppressed.; ±: No significant difference was observed in the expression enhancing effects at at least some of the concentrations.; +: A significant difference with p < 0.05 or more was observed in the expression enhancing effects at all concentrations.; ++: A significant difference with p < 0.01 or more was observed in the expression enhancing effects at all concentrations. It counts as cell-based, human. Particulars: for FGF1: extracts at a volume of 1/6,000 or 1/10,000 (Production Examples 1 and 6 at non-cytotoxic concentration), D-pinitol and shikimic acid at 1 µM and 10 µM; for expression enhancing effects for FGF1 (in words): summary of Table 5. The method, then: (§1) The pine needle extract of Production Example 1 was added to the culture medium for HFDPCs, and the expression of hair growth markers was measured by quantitative real-time PCR. As the hair growth markers, CTNNB1 gene (β-catenin), ALPL gene (alkaline phosphatase), and FGF1 gene (fiblobrast growth factor 1) were examined. It is known that β-catenin induces anagen of the hair cycle and promotes the proliferation of keratinocytes. ALPL is a representative hair growth marker in the hair papilla cells. FGF1 is a marker for morphogenesis of hair follicles. HFDPCs were seeded in a 6-well plate at a concentration of 5 × 10^4 cells/well and incubated at 37°C for 24 hours. Subsequently, the culture medium was removed and replaced with a culture medium containing a pine needle extract at a volume of 1/4,000 and 1/2,000. Furthermore, for a comparison, cells treated with a culture medium to which minoxidil (0.1 µM), an existing therapeutic agent for hair loss, was added, were also prepared. Subsequently, after 48 hours, the cells were washed with cold PBS, and total RNA was extracted using an ISOGEN kit (Nippon Gene Co., Ltd.). Subsequently, the total RNA was quantified using a NanoDrop 2000 spectrophotometer (Thermo Fisher Scientific, Inc.), and quantitative real-time PCR analysis was performed. […] Subsequently, real-time PCR was carried out using a 7500 Fast Real-Time PCR system (Software 1.3.1, Thermo Fisher Scientific, Inc.) and TaqMan probes specific for CTNNB1, ALPL, and FGF1. GAPDH was used as an endogenous control, and the 2^- △△Ct method was applied, to calculate the relative amount of mRNA in comparison with GAPDH. The effect of the pine needle extracts of Production Examples 3 to 6 on the hair growth-related genes was examined by the same method as that used in Experimental Example 6. Furthermore, the same examination was carried out for D-pinitol and shikimic acid. The pine needle extracts of Production Examples 3 to 6 were each added to the culture medium for cells at a volume of 1/6,000 or a volume of 1/10,000. The pine needle extracts of Production Examples 1 and 6 were each added to the culture medium for cells at a concentration at which cytotoxicity was not observed. D-pinitol was added to the culture medium for cells at 1 µM and 10 µM. Shikimic acid was added to the culture medium for cells at 1 µM and 10 µM. In the following Table 5, "CTNNB1", "ALPL", and "FGF1" indicate the evaluation results for the expression enhancing effects of each hair growth-related gene. […]

The subject of series [2] is human primary hair papilla cells (HFDPC). Description: Cytotoxicity (MTT cell viability) in hair papilla cells. The class given is cell-based. The arrangement: key: -: No cytotoxicity was observed.; ±: The cell viability was reduced by 40% or more at a volume of 1/100.; +: The cell viability was reduced by 10% or more at a volume of 1/10,000.; ++: The cell viability was reduced by 40% or more at a volume of 1/10,000. Particulars: same method as Experimental Example 4. The method, then: The cytotoxicity of the pine needle extract of Production Example 1 was examined. Regarding the cells, human primary hair papilla cells (HFDPC, purchased from PromoCell GmbH), which are mesenchymal cells isolated from the papilla of normal human scalp hair follicles, were used. HFDPCs were seeded on a collagen-coated 96-well plate at a concentration of 5 × 10^4 cells/well and incubated at 37°C in a humidified atmosphere of 5% CO2. As a culture medium, a hair papilla cell growth culture medium to which growth factors (bovine fetal serum, insulin, transferrin, triiodothyronine, bovine pituitary extract, and a cyproterone solution) had been added was used. After 24 hours, the culture medium for the cells was replaced with a culture medium to which a pine needle extract was added at a volume of 0 (control), 1/6,000, 1/5,000, 1/4,000, 1/3,000, 1/2,000, 1/1,000, 1/500, 1/250, or 1/100, and the cells were incubated for 48 hours. […] Specifically, an MTT reagent (5 mg/mL) was added to the cells, the cells were incubated for 8 hours, subsequently 10% sodium dodecyl sulfate (SDS) was added thereto, and the cells were incubated overnight. Thereafter, the absorbance at 570 nm was measured using a microplate reader, and the cell viability was quantified as a proportion (%) of the absorbance with respect to the absorbance of untreated cells. […]

The subject of series [3] is ALPL gene (alkaline phosphatase). Description: Quantitative real-time PCR of hair growth-related gene ALPL in HFDPCs. The class given is cell-based, human. The arrangement: key to ALPL: -: Expression was suppressed.; ±: No significant difference was observed in the expression enhancing effects at at least some of the concentrations.; +: A significant difference with p < 0.05 or more was observed in the expression enhancing effects at all concentrations.; ++: A significant difference with p < 0.01 or more was observed in the expression enhancing effects at all concentrations. Particulars: for ALPL: extracts at a volume of 1/6,000 or 1/10,000 (Production Examples 1 and 6 at non-cytotoxic concentration), D-pinitol and shikimic acid at 1 µM and 10 µM; for expression enhancing effects for ALPL (in words): summary of Table 5. The method, then:
as §1

Another series relates to CTNNB1 gene (β-catenin). Description: Quantitative real-time PCR of hair growth-related gene CTNNB1 in HFDPCs. The class given is cell-based, human. The arrangement: key to CTNNB1: -: Expression was suppressed.; ±: No significant difference was observed in the expression enhancing effects at at least some of the concentrations.; +: A significant difference with p < 0.05 or more was observed in the expression enhancing effects at all concentrations.; ++: A significant difference with p < 0.01 or more was observed in the expression enhancing effects at all concentrations. The conditions noted are these: for CTNNB1: extracts at a volume of 1/6,000 or 1/10,000 (Production Examples 1 and 6 at non-cytotoxic concentration), D-pinitol and shikimic acid at 1 µM and 10 µM; for expression enhancing effects for CTNNB1 (in words): summary of Table 5. As for the experimental part: as §1

Series [4] is described as follows: Body weight and food intake during 7-day oral administration. It counts as in vivo, ICR mouse. Particulars: 20 mg/kg bupropion oral, daily for 7 days. As for the experimental part: In the following Table 6, "LPS" indicates lipopolysaccharide. Furthermore, bupropion administered to a positive control group is an antidepressant. The mice in each group were kept for 7 days to be acclimatized, and then a pine needle extract was orally administered daily for 7 days. Thereafter, neuroinflammation was induced in the brain by a single intraperitoneal administration of LPS, and depression was developed. A tail suspension test was performed the day after the administration of LPS. In the tail suspension test, a SMART 3.0 video image behavior analysis device (Panlab S.L.U.) was used. The brain was removed the day after the tail suspension test, and the hippocampus was further collected and used in the experiment that will be described later.

In the case of `CO[C@H]1[C@H](O)[C@@H](O)[C@@H](O)[C@H](O)[C@@H]1O` [D-pinitol], in series [1], the FGF1 result is “++” and the “expression enhancing effects for FGF1 (in words)” value is on record as “exhibited expression enhancing effects”. Besides, the Cytotoxicity result in series [2] is reported as “-”. Moreover, in series [3], the ALPL result is listed as “-” and the “expression enhancing effects for ALPL (in words)” value was “did not exhibit expression enhancing effects”. Further, in the series on CTNNB1 gene (β-catenin), the CTNNB1 entry is reported as “++” and the “expression enhancing effects for CTNNB1 (in words)” value is listed as “exhibited expression enhancing effects”.
Take `O=C(O)C1=C[C@@H](O)[C@@H](O)[C@H](O)C1` [Shikimic acid]: in series [1], the FGF1 result was “++” and the “expression enhancing effects for FGF1 (in words)” value is “exhibited expression enhancing effects”. Moreover, the Cytotoxicity result in series [2] was “-”. For the same compound, in series [3], the ALPL entry is reported as “±” and the “expression enhancing effects for ALPL (in words)” value is “did not exhibit expression enhancing effects”. In the series with CTNNB1 gene (β-catenin), the CTNNB1 entry is reported as “+” and the “expression enhancing effects for CTNNB1 (in words)” value was “exhibited expression enhancing effects”.
Turning to `CC(NC(C)(C)C)C(=O)c1cccc(Cl)c1` (stereo not drawn) [bupropion], in series [4], the “Final body weight” value amounted to 35.6 ± 0.7 g, the “Increase in body weight (g / 7 days)” value is on record as 2.9 ± 0.4 g / 7 days and the “Total amount of food intake (g / 7 days)” value is 25.0 ± 1.2 g / 7 days. Besides, the “Initial body weight” value in series [4] (baseline) is 32.7 ± 0.8 g.
